Assay results reported in US7375124B2, “Use of α-phenylthiocarboxylic and α-phenyloxycarboxylic acids with serum-glucose-lowering and serum-lipid-lowering activity” (Sigma-Tau Industrie Farmaceutiche Riunite S.p.A., priority 2002, dated 2008).
Where two headings read alike, the source gives them in different places.

Columns and labels:
C57BL/KsJ db/db mouse [1] = conditions: in vivo
Source text: (§1) Plasma levels of glucose, insulin, triglycerides, cholesterol, free fatty acids and urea were checked for a well-matched distribution of mice in the treatment groups.
(§2) At the start of treatment the body weights of the mice were checked and arrangements were made for monitoring water and feed consumption.
(§3) In the course of the experiment, serum glucose levels, oral glucose tolerance test (OGTT) findings, a number of lipid status parameters and weight gain were monitored.

C57BL/KsJ db/db mouse [2] = assay: Antidiabetic and serum-lipid-lowering activity in the db/db mouse (Experiments I and II); conditions: for Variation % (AUC glucose at OGTT) vs control / AUC glucose at OGTT: OGTT glucose 3 g/kg; for AUC glucose at OGTT / Glucose (plasma) / Fructosamine (plasma) / HDL-choles. (plasma) / Triglycerides (plasma) / Glucose / Final b.w. / Initial b.w.: mean ± S.E.; for Glucose (plasma): postabsorption (fasting 9 a.m. to 4.30 p.m.); for Glucose (plasma) / Variation % (fructosamine) vs control / Variation % (plasma glucose) vs control / Fructosamine (plasma) / HDL-choles. (plasma) / Triglycerides (plasma): 7.5 hours after last treatment; for Glucose: blood; for Final b.w. / Initial b.w.: postabsorption condition; for Variation % (initial b.w.) vs control / Initial b.w.: initial body weight
Source text: as §1, §2, §3

mPPARαLBD/Gal4DBD = target: T1, mPPARαLBD/Gal4DBD (Mus musculus, UniProt P23204); assay: Transactivation assay mediated by mPPARαLBD/Gal4DBD in COS-7 cells (CAT reporter); format: cell-based
T1 construct: expressed in transfected cells; host or cells: COS-7 (monkey kidney fibroblasts)
T1 sequence (P23204 239-466 limits assumed): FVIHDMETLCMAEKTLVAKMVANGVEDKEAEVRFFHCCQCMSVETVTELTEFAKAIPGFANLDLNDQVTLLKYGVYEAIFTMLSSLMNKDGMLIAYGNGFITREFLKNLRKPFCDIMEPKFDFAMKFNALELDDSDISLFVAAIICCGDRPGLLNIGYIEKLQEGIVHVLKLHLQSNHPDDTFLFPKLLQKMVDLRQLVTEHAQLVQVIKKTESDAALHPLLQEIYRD
Source text: In this model a transactivation assay is used in which the expression vector mPPARαLBD/Gal4 DBD allows the synthesis by the transfected cell of a chimeric protein, in which the ligand binding domain (LBD) of PPARα is fused with the DNA binding domain (DBD) of the transcription factor GAL4 of yeast [Luckow B. et al., Nucleic Acids Res. 15, 5490 (1987)]. Simultaneously, a plasmid (pG5CAT) is transfected which contains 5 copies of the high-affinity binding site for GAL4 (also called UAS, upstream activating sequence), upstream of the viral promoter E1b fused with the CAT reporter gene [Moya-Camarena S. Y. et al., J. Lipid Res. 40 (8), 1426-33 (1999)]. This model eliminates interference by possible endogenous receptors.
This is due to the fact that the activation of E1b and the production of CAT will occur exclusively thanks to the interaction of GAL4 DBD with its own response element (UAS). Since the transcription factor GAL4 is not expressed in […] cells, transactivation of the reporter gene can take place only when, as a result of the interaction of a ligand with the LBD of PPARα, the chimeric protein PPARα/GAL4 recognises the UAS sequence on the plasmid pG5CAT. Together with the expression vector and the reporter vector the cells were also transfected with the plasmid pCH110 which provides the internal control for the efficiency of transfection and the normalisation of the results.
A monkey kidney fibroblast cell line (COS-7) was used [Elbrecht A. et al., J. Biol. Chem. 274 (12), 7913-22 (1999)]. The cells were co-transfected with the reporter vector, the expression plasmid coding for the fusion protein Gal4 DBD/PPARαLBD and the control vector pCH110. The cells were exposed to increasing concentrations of the study compounds and CAT activity was evaluated. Untreated cells were used as controls.
Monkey kidney fibroblasts (COS-7) were cultured according to the usual cell culture techniques, at 37° C. in a 5% v/v carbon dioxide atmosphere using as the growth medium DMEM (Dulbecco's modified Eagle's medium) modified with 3.7 g/l of sodium bicarbonate, 4 mM L-glutamine, 4.5 g/l of glucose, 1 mM sodium pyruvate and 10% v/v of foetal bovine serum, in the presence of streptomycin 100 μg/ml and penicillin 100 U/ml final.
The cells were co-transfected using the transfection reagent FuGENE6 (Roche), consisting of a defined mixture of lipids capable of complexing the DNA and of transporting it into the cells. Twenty-four hours prior to transfection the cells were plated at a density of 1.2×10^5 cells/well in 12-well plates and maintained at 37° C. in a 5% v/v CO2 atmosphere. […] Briefly, the transfection mixture containing 0.8 μg of the expression vector, 1.6 μg of the reporter vector, 0.8 μg of the control vector and 9 μl of the FuGENE6 reagent per well was added directly to the cells in the presence of culture medium devoid of serum. After 5 hours, the transfection medium was replaced by 1 ml of culture medium complete with serum and antibiotics in the presence or absence of the molecules to be tested at 3 different concentrations (2, 20 and 100 μM). Wy-14,643 (2 μM), a known ligand of PPARα, was used as the positive reference compound.
After 48 hours' incubation at 37° C. in a 5% v/v CO2 atmosphere, the cells were washed twice with 1 ml of phosphate buffer (PBS) and removed mechanically from the wells in TEN buffer (Tris[hydroxymethyl]aminomethane 10 mM pH 8, ethylenediamine-tetraacetic acid 1 mM pH 8, sodium chloride 0.1 M). After centrifuging for 3 minutes at 1000 rpm, the cells were resuspended in 65 μl of lysis buffer (Tris-HCl 0.25 M, pH 8) and then lysed thanks to three rapid freeze-thaw cycles. The insoluble cellular materials (debris) were removed by centrifuging at 15,000 rpm for 15 minutes at 4° C., and the supernatant was recovered and used for the CAT and β-galactosidase activity assays. […]

[3] = Experiment I, after 12 days' treatment, feeding state, approx. 15 hours after last treatment
[4] = Experiment I, after 12 days' treatment, postabsorption, 8 hours after last treatment
[5] = Experiment I, after 18 days' treatment
[6] = Experiment I, after 18 days' treatment, fasting 18 hours, 5 hours after last treatment
[7] = Experiment I, after 18 days' treatment, fasting 18 hours, 6 hours after last treatment
[8] = Experiment I, after 25 days' treatment
[9] = Experiment I, after 25 days' treatment, postabsorption
[10] = Experiment I, after 12 days' treatment, postabsorption (fasting 9 a.m. to 5 p.m.), 8 hours after last treatment
[11] = Experiment I, db/db mice, oral twice daily, after 12 days' treatment, feeding state, approx. 15 hours after last treatment
[12] = Experiment II, after 11 days' treatment, fasting 18 hours, 5 hours after last treatment
[13] = Experiment II, after 12 days' treatment
[14] = Experiment II, after 12 days' treatment, postabsorption

CC(C)OC(=O)C(C)(C)Oc1ccc(C(=O)c2ccc(Cl)cc2)cc1 [Fenofibrate, fenofibrate, reference compound]
Final b.w. (C57BL/KsJ db/db mouse [1]): 34.5 ± 1.0 g
Initial b.w. (C57BL/KsJ db/db mouse [1]): 33.3 ± 0.7 g
Variation % (final b.w.) vs control (C57BL/KsJ db/db mouse [1]): +22%
Variation % (initial b.w.) vs control (C57BL/KsJ db/db mouse [1]): +5%
Variation % (glucose) vs control (C57BL/KsJ db/db mouse [2]; [3]): −4%
Variation % (glucose) vs control (C57BL/KsJ db/db mouse [2]; [4]): −1%
Variation % (AUC glucose at OGTT) vs control (C57BL/KsJ db/db mouse [2]; [5]): −12%
AUC glucose at OGTT (C57BL/KsJ db/db mouse [2]; [6]): 45192 ± 1546 a.u.
Variation % (glucose) vs control (C57BL/KsJ db/db mouse [2]; [7]): +12%
Variation % (HDL-cholesterol) vs control (C57BL/KsJ db/db mouse [2]; [8]): +18%
Variation % (triglycerides) vs control (C57BL/KsJ db/db mouse [2]; [8]): −30%
Glucose (plasma) (C57BL/KsJ db/db mouse [2]; [8]): 553 ± 30 mg/dL
Variation % (fructosamine) vs control (C57BL/KsJ db/db mouse [2]; [9]): +15%
Variation % (plasma glucose) vs control (C57BL/KsJ db/db mouse [2]; [9]): +21%
Fructosamine (plasma) (C57BL/KsJ db/db mouse [2]; [9]): 0.92 ± 0.02Δ mM
HDL-choles. (plasma) (C57BL/KsJ db/db mouse [2]; [9]): 96.4 ± 4.2 mg/dL
Triglycerides (plasma) (C57BL/KsJ db/db mouse [2]; [9]): 66.5 ± 3.5Δ mg/dl
Glucose (C57BL/KsJ db/db mouse [2]; [10]): 409 ± 11 mg/dL
Glucose (C57BL/KsJ db/db mouse [2]; [7]): 384 ± 20 mg/dL
Glucose (C57BL/KsJ db/db mouse [2]; [11]): 466 ± 8 mg/dL

COC(=O)C(C)(C)Sc1cccc(OCCc2ccc(Cl)cc2)c1 [Example 1, methyl 2-[3-[2-(4-chlorophenyl)ethoxy]phenylthio]isobutyrate]
Activation of reporter gene CAT as a percentage of the reference compound (WY-14,643 2 μM = 100%) (mPPARαLBD/Gal4DBD; 2 μM): 44.9%
Activation of reporter gene CAT as a percentage of the reference compound (WY-14,643 2 μM = 100%) (mPPARαLBD/Gal4DBD; 20 μM): 129.9%
Activation of reporter gene CAT as a percentage of the reference compound (WY-14,643 2 μM = 100%) (mPPARαLBD/Gal4DBD; 100 μM): 232.1%
Variation % (glucose) vs control (C57BL/KsJ db/db mouse [2]; [3]): −38%
Variation % (glucose) vs control (C57BL/KsJ db/db mouse [2]; [4]): −48%
Variation % (AUC glucose at OGTT) vs control (C57BL/KsJ db/db mouse [2]; [5]): −52%
AUC glucose at OGTT (C57BL/KsJ db/db mouse [2]; [6]): 24527 ± 889 a.u.
Variation % (glucose) vs control (C57BL/KsJ db/db mouse [2]; [7]): −58%
Variation % (HDL-cholesterol) vs control (C57BL/KsJ db/db mouse [2]; [8]): +20%
Variation % (final b.w.) vs control (C57BL/KsJ db/db mouse [2]; [8]): +27%
Variation % (triglycerides) vs control (C57BL/KsJ db/db mouse [2]; [8]): −53%
Glucose (plasma) (C57BL/KsJ db/db mouse [2]; [8]): 206 ± 8Δ mg/dl
Variation % (fructosamine) vs control (C57BL/KsJ db/db mouse [2]; [9]): −49%
Variation % (plasma glucose) vs control (C57BL/KsJ db/db mouse [2]; [9]): −55%
Fructosamine (plasma) (C57BL/KsJ db/db mouse [2]; [9]): 0.41 ± 0.04 mM
HDL-choles. (plasma) (C57BL/KsJ db/db mouse [2]; [9]): 98.0 ± 3.5[…] mg/dl
Triglycerides (plasma) (C57BL/KsJ db/db mouse [2]; [9]): 45.3 ± 2.3 mg/dL
Glucose (C57BL/KsJ db/db mouse [2]; [10]): 216 ± 16 mg/dL
Glucose (C57BL/KsJ db/db mouse [2]; [7]): 144 ± 3Δ mg/dl
Glucose (C57BL/KsJ db/db mouse [2]; [11]): 303 ± 16 mg/dL
Final b.w. (C57BL/KsJ db/db mouse [2]; Experiment I, final body weight after 25 days' treatment): 35.9 ± 0.6 g
Variation % (initial b.w.) vs control (C57BL/KsJ db/db mouse [2]; Experiment I): +2%
Initial b.w. (C57BL/KsJ db/db mouse [2]; Experiment I): 32.3 ± 0.3 g
Variation % (glucose) vs control (C57BL/KsJ db/db mouse [2]; Experiment II, after 9 days' treatment, postabsorption, 8 hours after last treatment): −36%
Variation % (AUC glucose at OGTT) vs control (C57BL/KsJ db/db mouse [2]; Experiment II, after 11 days' treatment): −40%
AUC glucose at OGTT (C57BL/KsJ db/db mouse [2]; [12]): 25929 ± 1299 a.u.
Variation % (glucose) vs control (C57BL/KsJ db/db mouse [2]; [12]): −36%
Variation % (HDL-cholesterol) vs control (C57BL/KsJ db/db mouse [2]; [13]): +43%
Variation % (final b.w.) vs control (C57BL/KsJ db/db mouse [2]; [13]): +7%
Variation % (triglycerides) vs control (C57BL/KsJ db/db mouse [2]; [13]): −48%
Glucose (plasma) (C57BL/KsJ db/db mouse [2]; [13]): 356 ± 30 mg/dL
Variation % (plasma glucose) vs control (C57BL/KsJ db/db mouse [2]; [14]): −38%
HDL-choles. (plasma) (C57BL/KsJ db/db mouse [2]; [14]): 123.7 ± 1.9 mg/dL
Triglycerides (plasma) (C57BL/KsJ db/db mouse [2]; [14]): 45.1 ± 1.4 mg/dL
Glucose (C57BL/KsJ db/db mouse [2]; Experiment II, after 9 days' treatment, postabsorption (fasting 9 a.m. to 5 p.m.), 8 hours after last treatment): 223 ± 20Δ mg/dl
Glucose (C57BL/KsJ db/db mouse [2]; [12]): 158 ± 7 mg/dL
Final b.w. (C57BL/KsJ db/db mouse [2]; Experiment II, final body weight after 12 days' treatment): 40.3 ± 0.8[…] g
Variation % (initial b.w.) vs control (C57BL/KsJ db/db mouse [2]; Experiment II): −1%
Initial b.w. (C57BL/KsJ db/db mouse [2]; Experiment II): 38.6 ± 0.4 g
